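Briefly, cells in 96-well plates were exposed to five compound concentrations for 48 h, and endpoints were estimated by linear interpolation. At the GI50, growth is halved. TGI: total growth inhibition.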
Legend:
Test in all cases: NCI-60 cell line screen, 48 h
A498 renal = tested on: A498 renal
CCRF-CEM leukemia = tested on: CCRF-CEM leukemia
SF-268 CNS = tested on: SF-268 CNS
SF-539 CNS = tested on: SF-539 CNS
SNB-19 CNS = tested on: SNB-19 CNS
SNB-75 CNS = tested on: SNB-75 CNS
SW-620 colon = tested on: SW-620 colon
TK-10 renal = tested on: TK-10 renal
U251 CNS = tested on: U251 CNS
UACC-257 melanoma = tested on: UACC-257 melanoma

SMILES | TGI (A498 renal) | TGI (CCRF-CEM leukemia) | TGI (SF-268 CNS) | TGI (SF-539 CNS) | TGI (SNB-19 CNS) | TGI (SNB-75 CNS) | TGI (SW-620 colon) | TGI (TK-10 renal) | TGI (U251 CNS) | TGI (UACC-257 melanoma) | GI50 (CCRF-CEM leukemia) | GI50 (SF-268 CNS) | GI50 (SF-539 CNS) | GI50 (SNB-19 CNS) | GI50 (SNB-75 CNS) | GI50 (SW-620 colon) | GI50 (TK-10 renal) | GI50 (U251 CNS) | GI50 (UACC-257 melanoma) | GI50 (A498 renal)
COC1=CC(=O)C2C(C1=O)C(c1ccccc1)[C@H]2C (some centres not stated) | > 100 µM | > 100 µM | > 100 µM | > 100 µM | > 100 µM | > 100 µM | 36.6 µM | > 100 µM | > 100 µM |  |  |  |  |  |  |  |  |  |  | 
C/C=C/CC(C)[C@@H](O)[C@H](NC)C(=O)O (some centres not stated) |  | > 100 µM | > 100 µM | > 100 µM | > 100 µM | > 100 µM | > 100 µM | > 100 µM | > 100 µM | > 100 µM |  |  |  |  |  |  |  |  |  | 
CCCN(CCCC(NC(C)=O)C(=O)NCc1ccccc1)C(=O)NCCCl (configuration not stated) |  | > 100 µM | > 100 µM | > 100 µM | > 100 µM | > 100 µM | > 100 µM | > 100 µM | > 100 µM | > 100 µM |  |  |  |  |  |  |  |  |  | 
CC(=O)OC1CC2C(C)(C)C(=O)C=C[C@]2(C)C2CCC3(C)C(=CC(=O)C3c3ccoc3)[C@]12C (some centres not stated) | 33.9 µM | 30 µM | 33.1 µM | 31.2 µM | 29.2 µM | 36.1 µM | 26 µM | 30 µM |  | 48.2 µM |  |  |  |  |  |  |  |  |  | 
COC(=O)Cc1ccc(Oc2cnc3cc(F)c(F)cc3n2)cc1 |  | > 100 µM | > 100 µM | > 100 µM | > 100 µM | > 100 µM | > 100 µM | > 100 µM | > 100 µM | > 100 µM | 44200 nM | > 100 µM | > 100 µM | > 100 µM | > 100000 nM | > 100 µM | > 100 µM | > 100 µM | > 100 µM | 
CCN(CC)CCCC(C)N=C(C1=C(C(=NC(C)CCCN(CC)CC)c2cccc(OC)c2)C(=O)NC1=O)c1cccc(OC)c1 (configuration not stated) | 8.38 µM | 7.47 µM | 8.29 µM |  | 16.4 µM | 6.81 µM | 2.38 µM | 3.44 µM | 2.5 µM | 1.75 µM | 1490 nM | 1.97 µM |  | 3.71 µM | 1650 nM | 0.71 µM | 1.26 µM | 1.06 µM | 0.952 µM | 1.85 µM
N#CCN/C=C\C(=O)c1ccc(Cl)cc1 | > 100 µM | > 100 µM | > 100 µM | 68.3 µM | > 100 µM |  | > 100 µM | > 100 µM | > 100 µM | > 100 µM | 398 nM | 26.7 µM | 27 µM | 31.4 µM |  | 37.8 µM | 31.1 µM | 70.7 µM | 31.9 µM | 38.6 µM
CCCCCCCCCCCCCCCCCC(=O)OCC(COC(=O)CCCN)OC(=O)CCCN (configuration not stated) |  | > 100 µM | 45.3 µM | 32.2 µM | 48 µM | > 100 µM | 38.2 µM | 36.7 µM | 40.8 µM | 34.4 µM |  |  |  |  |  |  |  |  |  | 
Cc1ccc(S(=O)(=O)NNC(=O)c2cc(C)c(C)cc2N)cc1 | > 100 µM | > 100 µM |  | > 100 µM | > 100 µM | > 100 µM | > 100 µM |  | > 100 µM | > 100 µM |  |  |  |  |  |  |  |  |  | 
